From patent US20040138156A1, “Therapeutic regulation of deoxyribonuclease-1-like-3 activity” (priority 2002, published 2004)
“Also recorded” adds a separate entry of the source.

Tests used:
D1L3 = settings: cited from earlier work
bone marrow macrophages = test: Induction of D1L3 in cultured bone marrow macrophages (anti-D1L3 immunoblot, RDA, zymogram); format: cell-based, C57BL mice; settings: 100 U/ml for the interferons
Experimental: FIG. 22. Normal and induced expression of D1L3 in murine macrophages. […] In anti-D1L3 blots of cell lysates, the protein is seen both as a ^˜34 kDa uncleaved molecule and a ^˜28 kDa cleaved molecule. […] Cells were plated on serum-coated tissue culture dishes and incubated overnight, the next morning, non-adherent cells (N) were rinsed vigorously with PBS 1×, and both adeherent (A) and non-adherent cells (N) from C57BL, NZB/W, BXSB, and MRL were lysed and immunoblotted with anti-D1L3. While the ^˜34 kDa size band consistent with uncleaved D1L3 is present in both adherent and non-adherent, the cleaved form (^˜28 kDa) is present almost exclusively in the adherent population of presumed macrophages. Also noticable are the higher levels of expression of D1L3 in the 3 latter lupus strains. Panel B: Untreated bone marrow macrophages from NZB/WF1 mice have a much higher baseline expression expression of D1L3 than C57BL macrophages.
Induction is present in macrophages from both strain though the absolute level of induction appears greater in C57BL than in the SLE-prone NZB/W F1 strain. NZB/W protein loads in Ifn-γ-negative lane is slightly underloaded relative to actin. Panel C: Bone marrow macrophages isolated from bone marrow (via adherence) from MRL and C57BL mice, and cultured for 2 days in vitro, were induced by Ifn-γ. […] No induction of D1L3, RDA-DNASE, or zymographic DNASE activity is evident upon tratement with 100 U/ml of Ifn-alpha. […] Panel D: Bone marrow macrophages from C57BL and MRL mice cultured for 7 days in the presence of GM-CSF were induced with Ifn-γ, again showing the higher baseline levels of 28 kDa enzyme in the lupus prone strain, and in C57BL showing induction of levels aftern Ifn-γ. […]
(§1) Assays of Murine Cells. […] Splenocytes were counted using a hemochromocytometer, and plated at 2 million cells/ml on plastic 6-well Falcon tissue culture dishes (Becton Dickinson) in RPMI with 10% FCS. […]

HeLa cells = test: BT assay: liposomal N1-eGFP transfection of HeLa cells in DNASE-conditioned media, GFP immunoblot; format: cell-based; settings: equivalent doses of Ifn-γ, no macrophages
Experimental: In the main assay, an eukaryotic marker such as green fluorescent protein (GFP) expression plasmid complexed with a lipid reagent is transfected into HeLa cells incubated in control media, D1L3-conditioned media, or D1-conditioned media (FIG. 4). The assay is not limited to the use of GFP as a marker, but could use any of many expressed biomarkers encoded by nucleotides that can be assayed either immunochemistry, fluorescent detection, or enzymatic detectection, and these include but are not circumscribed to luciferase, chloramphenicol acetyl-transferase, antibiotic or chemical resistance genes, Beta-galactosidase, FLAG-, myc-hemaglutinnin-, or other epitope tagged molecules, as well as other markers of gene or nucleotide transduction. The endpoint of the assay is the detection of a synthesized protein, but could easily have been the detection of a transcribed gene product, since the assay ultimately measures the ability of D1L3 added the media/milieu overlaying the cells to block the ultimate association of an expressible plasmid with the transcriptional machinery.
Transfection Reagents and Resistance Assays. Lipofection of respective pcDNA3.1-D1 or -D3 ([…] purified with Promega Wizard Plus DNA system) was performed independently into 1-2 million HeLa cells, which produce a low background of secreted nuclease activity, when grown in DMEM with 10% FCS (LifeTech) in 6 well culture plates (Becton-Dickinson). […] Media of the transfected cells were conditioned for 36-48 hours and served as source of the respective enzymes. Nuclease activity in conditioned supernatant was measured by RDAs, zymograms and by testing activity against supercoiled pBluescript (Stratagene).
To test for the ability of the nucleases to block transfection, the media in individual wells of naive HeLa cells were replaced with conditioned media, and cells transfected with […] of N1-eGFP plasmid (Clontech) using various transfection reagents (FIG. 11) and their respective protocols. GFP expression by immunoblot directly correlated with transfection efficiency in present experiments. Thus, transfection efficiency was compared by densitometric analysis of GFP immunoblots.
GFP expression was also examined by fluorescent microscopy using a FITC filter. For microscopy, cells were fixed for 5 minutes in 4% paraformaldehyde dissolved into 1% PBS.
Antibody Reagents and Immunoblotting. After 24-36 hours, cells transfected with N1-eGFP were lysed in SDS-buffer and immunoblotted for expression with anti-GFP at 1:5000 dilution (Clontech). To confirm nearly equal protein loading per lane, anti-β-actin monoclonal antibody at 1:7,000 dilution (Sigma) were prepared. For immunoblots, […] protein was eletrophoretically separated by 12% SDS-PAGE gel, followed by electrotransfer to Immobilon-P membranes (Millipore) for expression studies. Immunoblotting was performed using ECL detection (Amersham).
Transfection efficiency was compared, wherever possible, by pixel densitometry of the scanned images using Scion Image 4.02 software.

[1] = tested on: bone marrow-derived macrophages; test: BT activity of media conditioned by Ifn-γ treated bone marrow-derived macrophages, overlaid on HeLa cells; format: cell-based, C57BL mice; settings: 100 U/ml; b134: 1000 U/ml vs 100U/ml
Excerpt: FIG. 29. Media conditioned by Ifn-γ treated macrophages from C57BI, but not NZB/W F1 mice is able to confer an in vitro barrier to liposomal gene transduction (BT). Panel A: Media conditioned by interferon-g (Ifn-γ) treated bone marrow-derived macrophages from C57 BL confers a barrier to liposomal transfection to HeLa. […] Panel B: As interferon dose increased, the ability by C57BL macrophages to confer a barrier to transfection increased. In the absence of Ifn-γ, macrophages confer a weaker barrier. Panel C: Interferon gamma induces both DNASE activity by RDA and a DNASE band compatible with DNASE1L3 at 28 kD, plus induces a BT activity. Samples were from macrophages from two C57BL mice (B1 and B2). In the left register is pre- and post interferon RDAs, in the middle register, pre and post interferon, and in the right register are the BT assays (GFP immunoblots of tranfected HeLa cells) on HeLa cells, including HeLa cells treated directly with interferon gamma for 48 hours. Media conditioned for 48 hours. Panel D: BT activity in macrophage-conditioned media from NZB/W F1 (NZ) or C57BL (BL). […]
as §1

Row | Compound | effect on D1L3 DNASE activity (D1L3) | induction of D1L3 in macrophages (bone marrow macrophages) | BT of HeLa cells treated with Ifn-γ or of media conditioned by them (HeLa cells) | BT activity of media conditioned by treated macrophages [1]
1 | O=C(O)CN(CCN(CC(=O)O)CC(=O)O)CC(=O)O [EDTA] | block D1L3 DNASE activity | – | – | –
2 | Ifn-γ: interferon-gamma (Genzyme), macrophage activator | – | inducible; also recorded: significant induction of D1L3 levels | neither confer nor possess a BT | confers BT; also recorded: Increased BT activity
3 | [Zn+2] [zinc] | block D1L3 DNASE activity | – | – | –
